Source: patent publication US9044388B2, “Dry eye treatment” (Ocular Research of Boston, Inc., priority 2005, dated 2015)
Each block holds one molecule with its values, some of them ahead of it.

Legend:
eye [1] = conditions: in vivo; cited from earlier work
ocular surface = assay: Evaluation of comfort on the eye (sensation after one drop); assay type: in vivo, human; conditions: even in concentrations ≦0.10%
Procedure: The vehicle used for all formulations was Unisol 4, a buffered saline solution marketed by Alcon Laboratories, Fort Worth, Tex. Unisol 4 had previously been studied and found to be the most comfortable normal saline product for use on the ocular surface. It was therefore used as a vehicle for the test formulations, and was also used as a control. A drop of each of the 5 test formulations was placed on to the ocular surfaces of each subject, utilizing a 15 ml dropper container that delivered a drop of 40 μl to the ocular surface. […] The results obtained with 6 subjects, all of whom evaluated each of the test formulation on two different days are summarized in Table 3.

[2] = result in words; cited from earlier work
eye [3] = assay: Subjective sensation / stinging of emulsions and their surfactants on the eye; assay type: in vivo, human; conditions: higher concentration as sole primary surfactant
Procedure: The subjective sensation realized with both formulations was evaluated as comfortable, and without any form of adverse sensation.

Molecule: polyoxyethylene (40) stearate [Myrj-52]
- ocular discomfort on increasing the concentration (eye [1]): significant stinging

- sting when applied to the eye and ocular surfaces (ocular surface): sting
Molecule: sorbitan monolaurate [Span 20]

Molecule: CCCCCCCCCCCCCCCCCC(=O)OCC(O)CO (stereo not shown) [GMS, glycerol monostearate]
- solubility [2]: oil soluble

- effect of higher surfactant concentration on the eye (eye [3]): led to stinging on the eye
Molecule: CCCCCCCC/C=C\CCCCCCCC(=O)OCCOCC(OCCO)C1OCC(OCCO)C1OCCO (stereo not shown) [Polysorbate-80]
